Test results: patent US10813938B2 (priority 2015, dated 2020)
Converted amounts (≈) assume the structure as drawn.

Columns and labels:
[1] = RH stability study (~97% RH, XRPD before/after); conditions: ~97% relative humidity, 1 day, ambient temperature; FIG. 16
physchem = conditions: pH 6.8, aqueous buffer, thermodynamic from solid
Description: The injection volume was 15 μL. […] The following gradient was used: […]

solubility at 24 h (physchem) [mg/mL] | Structure (SMILES) | Solid form after exposure to ~97% RH (XRPD) [1]
 | Cn1c(=O)c2c(ncn2C)n(C)c1=O [Caffeine] | conversion to the hydrate
24 (≈ 52.4 mM) | O=C(O[C@@H]1Cc2c(O)cc(O)cc2O[C@@H]1c1cc(O)c(O)c(O)c1)c1cc(O)c(O)c(O)c1 [EGCG, Epigallocatechin gallate] | 
